How the values were obtained:
[1] = tested on: HCC cells; test: In vitro targeting of GNPs to HCC cells (counts per field); type: cell-based; conditions: relative to base GNP lacking the peptide
Text: (SEQ ID NO: 1), via its N-terminus (approx. 4 peptide molecules per nanoparticle).
Several base/peptide targeted GNPs were screened in vitro. GNPs having a mixed corona comprising galactose-C2-SH (Gal-C2) ligands and HSPEG8COOH were synthesised according to methodology analogous to that described above in Examples 1 and 2, with however galactose-C2-SH replacing glucose-C2-SH and HSPEG8COOH (also abbreviated SH-EG8-COOH or SH—(OCH2CH2)8—COOH) replacing the amino linker NH2-EG6-SH.
The glypican-3 peptide described in U.S. Pat. No. 8,388,937B2 (the contents of which are expressly incorporated herein by reference)—see SEQ ID NO: 1 thereof, which has the amino acid sequence: […] (SEQ ID NO: 1) was linked to the terminal COOH group of a proportion of the HSPEG8COOH ligands via the N-terminus of said peptide. In a “high loading” GNP construct (see row 1 in the table below), approximately 4 peptides were linked per nanoparticle core. The “high loading” Au@Gal-C2:HSPEG8COOH:HSPEG8CONH[…] The “low loading” Au@Gal-C2:HSPEG8COOH:HSPEG8CONH[…]

[2] = tested on: human hepatocellular carcinoma cell line HepG2; test: MTT cell viability assay, Pt / doxorubicin loaded nanoparticles vs free drug; conditions: concentration based on drug amount, FIG. 7: 72 h after treatment
Experimental: The human hepatocellular carcinoma cell line HepG2 was used in the assay.
HepG2 cells were grown in a T-75 flask. For the transfer of the cell the medium was removed from the flask and the cells were trypsinated for 5 minutes. The cells were collected in a Falcon tube and diluted with complete cell medium. The cell counting was conducted in a Neubauer chamber. A cell solution was prepared to seed 4000 cells per well (200 μL per well). The microtiter plate was incubated for 24 h at 37° C.
For each NP and drug, formulations in cell medium were prepared. The compounds were tested in different concentrations (0.01, 0.05, 0.2, 1, 5, 25 and 125 μM based on drug amount). For the treatment, the cell medium was removed from all wells and exchanged for drug formulations. 200 μl of treatments per triplicate was added to each well. The microtiter plates were incubated for 24 h, 48 h and 72 h at 37° C.
1.5 mL MTT solution (8.0 mg in 1.6 mL DMSO) was diluted with complete cell medium (phenol-red free). The treatment cell medium was removed from the microtiter plate, the wells were washed with 100 μL PBS and 100 μL of the MTT reactive solution was added to each well. After one hour incubation at 37° C. the MTT solution was removed and 100 μL DMSO was added to dissolve the formazan dye. Absorbance was measured at 570 nm.
Data were analysed using OriginPro8. The normalized data were plotted and the curve was fitted using a non-linear regression curve fit (sigmoidal dose-response curve with variable slope). The Absolute IC50 values were obtained by interpolation.

[3] = tested on: Hep3B cells; test: In vitro cytotoxicity, Hep3B; type: cell-based, human
Text: A lower bar height indicates higher cytotoxic potency.
(§1) The cytotoxicity of gold nanoparticle constructs GalC2-PEG8COOH-GNP (parent, non-functionalised gold nanoparticle (MTC-100011)), and MTC-100038 were compared to free DM1 drug in the HCC cell lines HEPG2 and HEP3B.

[4] = Pharmacokinetics and biodistribution of DM1, subcutaneous Hep3B xenograft model; type: in vivo, NOD/SCID mouse; conditions: no further decline at 48 hours, dosed article not stated
Experimental: DM1 tumour concentration (mean±SEM) is shown for MTC-100038-treated (equivalent DM1 dose 0.06 mg/kg) animals (left-hand bars) and free DM1-treated animals (also 0.06 mg/kg dose) (right-hand bars). Time points are 2 hours (solid fill), 24 hours (horizontal lines) and 48 hours (checked pattern).
The in vivo pharmacokinetics and biodistribution of DM1 was studied in the subcutaneous Hep3B human hepatocellular cancer xenograft model (Table 1). The concentration of gold and DM1 in liver and kidney samples was evaluated 2, 24 and 48 hours after the last drug administration.

[5] = tested on: orthotopic Hep3B-Luc hepatocellular cancer xenograft; test: Anti-tumour efficacy, orthotopic HEP3B xenograft model (bioluminescence); type: in vivo, BALB/c nude mice; conditions: for T/C (%) / Bioluminescence: day 21; for Bioluminescence: Mean
Experimental: The in vivo anti-tumour efficacy of MTC-100038 in an orthotopic hepatocellular cancer xenograft model in BALB/c nude mice was evaluated. Briefly, female BALB/c nude mice (18-23 g, n=10/group), were implanted with approximately 3×10^6 Hep3B-Luc cells mixed with BD Matrigel in 20 μL (PBS:Matrigel=1:1). Animals were selected and randomized (based on their bioluminescence density) on day 7 after tumour implantation to 6 groups using randomized block design based upon their bioluminescence.
The tumour bioluminescence was used for the calculation of T/C value (in percent), where T and C are the mean bioluminescence of the treated and control groups, respectively, on a given day. Statistical analysis of difference in bioluminescence among the groups and the analysis of drug interaction were conducted on the data obtained at the best therapeutic time point after the final dose (the 21st day after the start of treatment).
A one-way ANOVA was performed to compare bioluminescence among groups, and when a significant F-statistics (a ratio of treatment variance to the error variance) was obtained, comparisons between groups were carried out with Games-Howell test with p<0.05 statistically significant.

[6] = tested on: BEL7404; test: In vitro cytotoxicity, BEL7404; type: cell-based
[7] = Tolerability (body weight change), mouse model with human HCC xenograft; type: in vivo; conditions: I.V., five consecutive days
Experimental: The animals in this case were a mouse model with a human HCC xenograft. Animals dosed intravenously (I.V.) for five consecutive days (shaded area left of dotted vertical line) at either a low dose of 0.15 mg/kg of DM1 alone (inverted triangles) or high dose of 0.45 mg/kg DM1 alone (diamonds) or MTC-100038 at equivalent DM1 doses low (circles) and high (squares). Percentage body weight change was calculated based on animal weight on the first day of dosing. Data points represent percent group mean change in body weight±SEM. Body weight change is positive in the MTC-100038 nanoparticle-treated animals, but negative (low dose) or fatal (high dose) in the free DM1-treated animals.

[8] = tested on: subcutaneous Hep3B hepatocellular cancer xenograft; test: Anti-tumour efficacy, subcutaneous HEP3B xenograft model; type: in vivo, NOD/SCID mice; conditions: 0.1125 mg/kg i.v. QD×5, day 13
Experimental: The in vivo anti-tumour efficacy of MTC-100038 in a subcutaneous Hep3B hepatocellular cancer xenograft model in NOD/SCID mice was evaluated. Briefly NOD/SCID mice (18-22 g, n=10 per group) were implanted subcutaneously with HEP 3B hepatocellular cells (3×10^6) in 0.1 mL PBS for tumour development. Group/dosing assignment commenced when tumours reached a pre-determined volume of ˜200 mm^3 subcutaneous tumours (n=10 per group). Tumour size was measured twice weekly, and the volume was expressed in mm^3. The tumour size was then used for calculations of T/C values. The T/C value (in percent) is an indication of anti-tumour effectiveness (optimally, a test article is considered to have anti-tumour activity when T/C is 50% or less); T and C are the mean volumes of the treated and control groups, respectively, on a given day.

[9] = tested on: HCC cell lines HEPG2 and HEP3B; test: Cytotoxicity of gold nanoparticle constructs vs free DM1 (text values); type: cell-based, human; conditions: line for the value not stated
Text: as §1

[10] = tested on: subcutaneous BEL7404 hepatocellular cancer xenograft; test: Anti-tumour efficacy, subcutaneous BEL7404 xenograft model; type: in vivo, NOD/SCID mice; conditions: for T/C / Tumour size: day 13; for Tumour size: Mean ± SEM
Experimental: The in vivo anti-tumour efficacy of MTC-100038 in a subcutaneous BEL7404 hepatocellular cancer xenograft model in NOD/SCID mice was evaluated. Briefly NOD/SCID mice (18-22 g, n=10 per group) were implanted subcutaneously with BEL7404 tumour cells (3×10^6) in 0.1 ml of PBS for tumour development. Group/dosing assignment commenced when tumours reached a pre-determined volume of ˜200 mm^3 subcutaneous tumours.
Tumour size was measured twice weekly, and the volume was expressed in mm^3. The tumour size was then used for calculations of T/C values.

[11] = Tolerability (body weight change), Hep3B orthotopic xenograft model; type: in vivo, BALB/c nude mice; conditions: daily oral administration for 21 days
Experimental: The animals in this case were a mouse HCC model with a Hep3B orthotopic xenograft. MTC-100038, DM1, or vehicle were administered I.V. to BALB/c nude mice in 2×5 day cycles (shaded), whilst Sorafenib was administered by daily oral administration for 21 days (dashed line) at a dose of 60 mg/kg, which was the highest tolerated dose in this model. Percentage body weight change was calculated based on animal weight on the first day of dosing. Data points represent percent group mean change in body weight±SEM. Treatment groups were: Vehicle (black circles), Sorafenib 60 mg/kg (squares), free DM1 0.150 mg/kg (triangles), MTC-100038 0.225 mg/kg (green circles), MTC-100038 0.338 mg/kg (diamonds) and MTC-100038 0.450 mg/kg (inverted triangles).

[12] = 0.15 mg/kg i.v. QD×5 (D0-4) + QD×5 (D8-12)

GNP-GalC2(50)-AL(50)-(Ac)YFLTTRQ
Fold-targeting (over base particle) [1]: 5.0 fold
Fold-targeting (over base particle) ([1]; listed as Au@GalC2:AL:AL-(Ac)-YFLTTRQ): approximately 5 fold

COc1cccc2c1C(=O)c1c(O)c3c(c(O)c1C2=O)C[C@@](O)(C(=O)CO)C[C@@H]3O[C@H]1C[C@H](N)[C@H](O)[C@H](C)O1 [Doxorubicin, doxorubicin]
IC50 ([2]; Homo sapiens): 60 nM

platinum-(IV)-succinate
IC50 [2]: 38600 nM
IC50 ([2]; listed as Pt(IV)-succinate): 38600 nM

COc1cc2cc(c1Cl)N(C)C(=O)C[C@H](OC(=O)[C@H](C)N(C)C(=O)CCS)[C@]1(C)O[C@H]1[C@H](C)[C@@H]1C[C@@](O)(NC(=O)O1)[C@H](OC)/C=C/C=C(\C)C2 [DM1, maytansinoid DM1]
IC50 [3]: 11 nM
decline of DM1 concentration in the tumour between 2 and 24 hours [4]: about 40%
anti-tumour activity compared with vehicle group ([5]; 0.15 mg/kg): no anti-tumour activity
T/C (%) [5, 12]: 83.4%
Bioluminescence [5, 12]: 1.21E+10 photons/s
IC50 [6]: 9 nM
body weight change, low dose ([7]; 0.15 mg/kg DM1 or equivalent DM1 dose): negative
body weight change, high dose ([7]; 0.45 mg/kg DM1 or equivalent DM1 dose): fatal
T/C [8]: 78.9%
Tumour size ([8]; Mean ± SEM): 1217 ± 254 mm^3
IC50 [9]: 4.15 nM
anti-tumour activity compared to vehicle ([10]; 0.15 mg/kg): no anti-tumour activity
T/C [10, 12]: 113.2%
Tumour size [10, 12]: 2656 ± 180 mm^3

CNC(=O)c1cc(Oc2ccc(NC(=O)Nc3ccc(Cl)c(C(F)(F)F)c3)cc2)ccn1 [Sorafenib]
anti-tumour activity compared with vehicle group ([5]; 60 mg/kg): significant anti-tumour activity
T/C (%) ([5]; 60 mg/kg p.o. QD×21): 22.3%
Bioluminescence ([5]; 60 mg/kg p.o. QD×21): 3.24E+09 photons/s
Bioluminescence ([5]; 60 mg/kg p.o. QD×21, listed as sorafenib): 3.24×10^9 photons/s
highest tolerated dose [11]: 60 mg/kg
anti-tumour activity compared to vehicle ([10]; 60 mg/kg over 21 days): significant tumour growth inhibition
T/C ([10]; 60 mg/kg p.o. QD×21): 41.9%
Tumour size ([10]; 60 mg/kg p.o. QD×21): 984 ± 64 mm^3

Reference: US11179344B2, “Nanoparticle-based liver-targeting therapy” (Midatech Limited, priority 2017, dated 2021)
